The record followed here is patent US11970509B1, “Water soluble nano-sized imine Ru(III) complex based on 4-aminobenzene sodium sulphonate for biomedical applications” (KING FAISAL UNIVERSITY, priority 2023, dated 2024).

In brackets after ≈: the same amount, converted by molar mass.

In test [1] the test system is Breast cancer cells line. The test can be described thus: Cytotoxic activity, Sulfo-Rhodamine-B-stain (SRB), breast cancer cell line. The note with it: Homo sapiens, 48 h.
The test system of test [2] is Aspergillus flavus. The test can be described thus: Antifungal activity, well diffusion method, Aspergillus flavus. It is filed as cell-based. The protocol: To evaluate antimicrobial activity, the fungal strain (Aspergillus flavus), was used. These strains cultured in nutrient agar and Muller-Hinton medium. Fluconazole compounds were used as a standard drug for comparison.
Antifungal activities of the prepared water soluble nano-complex were studied against three fungal cultures using well diffusion method. The tested fungi were inoculated in Sabouraud dextrose broth medium (Hi-Media Mumbai) and incubated at 35° C. for 72 h and subsequently a suspension of about 1.60×10^4-6.00×10^4 c.f.u/ml was introduced agar plates and a sterile glass spreader was used for even distribution of the inoculum. The discs measuring 6 mm in diameter were prepared from Whatman No. 1 filter paper and sterilized by dry heat at 140° C. for 1 h. The sterile discs previously soaked in known concentration of the tested compounds were placed in Sabouraud dextrose Agar (SDA) plates. The plates were inverted and incubated at 35° C. for 7 days. The susceptibility was assessed on the basis of diameter of inhibition against albicans and non-albicans strain of fungi.
For orientation: Agar diffusion results depend on both activity and mobility in agar.

The test system of test [3] is Escherichia coli(-ve). Description: Antimicrobial activity, agar well diffusion method, E. coli. Format: cell-based. The protocol: To evaluate antimicrobial activity, the bacterial strain Escherichia coli(-ve), was used. These strains cultured in nutrient agar and Muller-Hinton medium. Ofloxacin compounds were used as a standard drug for comparison. The susceptibilities of such growth rate of microorganisms were measured in vitro by agar well diffusion method. The tested nano complex was dissolved in dimethylsulfoxide at different concentrations (10 and 20 mg/ml). 1 cm^3 of a 24 h broth culture containing 10^6 CFU/cm^3 was placed in sterile Petri-dishes. Molten nutrient agar (15 cm^3) maintained at 45° C. was then poured into the Petri-dishes and allowed to solidify. Then holes of 6 mm diameter were formed in the agar using a sterile cork borer and these holes were completely filled with the test solutions. The plates were incubated for 24 h at 37° C. After the incubation period, the zone of inhibition of each well was determined by measuring the zones of growth inhibition (mm) against the test microorganisms with zone reader (Hi Antibiotic zone scale). […] The measurements were made in triplicate for each compound and their average values are reported.

In general, IC50 refers to the midpoint of a concentration-inhibition curve. A low value points to higher potency. As for `COc1cccc2c1C(=O)c1c(O)c3c(c(O)c1C2=O)C[C@@](O)(C(=O)CO)C[C@@H]3O[C@H]1C[C@H](N)[C@H](O)[C@H](C)O1` [Doxorubicin, reference compound], in test [1], the IC50 was found to be 4 µg/mL (≈ 7.36 µM). A word on the MIC: it is the lowest concentration that inhibits growth of the organism. A high value points to weaker potency. In test [2], `OC(Cn1cncn1)(Cn1cncn1)c1ccc(F)cc1F` [Fluconazol, reference compound] returned a minimum inhibitory concentration (MIC) of 1.75 µg/mL (≈ 5.71 µM). For the same compound, the inhibition zone in test [2] (well diffusion, 35° C. for 7 days) is recorded as 28 mm. Take `CC1COc2c(N3CCN(C)CC3)c(F)cc3c(=O)c(C(=O)O)cn1c23` (centres unmarked) [Ofloxacin, reference compound]: the MIC in test [3] (Escherichia coli) was found to be 2.5 µg/mL (≈ 6.92 µM). The inhibition zone in test [3] (agar well diffusion, 24 h at 37° C.) stood at 38 mm.
